melting point: 90 to 92 °C
SMILES: CC(=O)NCCN(C(=O)N1CCN(C(c2ccccc2)c2ccccc2)C[C@@H]1C(C)C)C1CCN(C(C)=O)CC1 [Example 16]
